Data: patent publication EP4772500A1, “NOVEL ISOXAZOLE COMPOUND AS TM4SF5-SPECIFIC INHIBITOR AND USE THEREOF” (Seoul National University R&DB Foundation, priority 2023, dated 2025)

Assays:
TM4SF5 [1] = target: T1, TM4SF5 (Homo sapiens, UniProt O14894); assay: Streptavidin pulldown and Western blotting: binding between TM4SF5 and cell membrane receptors/signaling factors; assay type: cell-based; parameters: expressed in transfected cells; host or cells: SNU449 human hepatocellular carcinoma cells, stably transfected; conditions: 24 hours
T1 sequence (O14894 1-197): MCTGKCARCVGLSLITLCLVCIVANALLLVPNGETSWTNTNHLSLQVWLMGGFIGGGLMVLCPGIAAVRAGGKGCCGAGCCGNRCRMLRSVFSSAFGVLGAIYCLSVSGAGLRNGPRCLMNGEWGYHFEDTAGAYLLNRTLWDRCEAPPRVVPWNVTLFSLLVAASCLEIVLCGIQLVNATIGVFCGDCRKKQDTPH
Method: Cells were cultured to ~60% density in a cell incubator at 37°C and 5% CO2, and then transfected using PEI and cultured in a cell incubator at 37°C for two days. After cultivation, cell extracts were obtained by the method described above. After precipitating a desired protein from the cell extracts using an immunoprecipitation method, the binding proteins were identified by the Western blot technique described above. Specifically, cells cultured in a 100 mm cell culture dish for two days were washed twice with PBS, and protease inhibitor cocktails (GenDepot, USA) were added to 500 µl of immunoprecipitation lysis buffer (0.5% Triton X-100 or Brij 58, 40 mM HEPES, 150 mM NaCl, 1 mM EDTA, pH 7.4), followed by treatment at 4°C for 15 minutes. […] Proteins therein were quantified using a BCA reagent (Thermo Scientifics, USA). An electrophoresis sample was prepared by adding 4x laemmli sample buffer to a portion of the quantified sample and boiling at 100°C for 5 minutes. For immunoprecipitation, Streptavidin Agarose Resin (Thermo Fisher Scientific) or anti-HA antibody-coated Sepharose beads were added in proportion to the quantified protein amount, followed by rotation at 4°C for 4 hours, and then centrifugation was performed at 7,000x g at 4°C for 5 minutes and the supernatant was discarded. […]

TM4SF5 [2] = target: T1, TM4SF5; assay: TM4SF5 expression-dependent cell line models (summary statement); assay type: cell-based; parameters: expressed in transfected cells; captured on streptavidin agarose
Text: (§1) In addition, the isoxazole compounds are capable of reversing both (i) an increase in PD-L1 expression and stabilization through direct binding mediated by TM4SF5 and (ii) induction of PD-1 expression in T cells, which suppresses T-cell activation and cancer cell killing functions.

PD-L1 = target: T2, PD-L1 (Homo sapiens, UniProt Q9NZQ7); assay: Cholesterol binding to PD-L1; conditions: summary statement, cholesterol binding to TM4SF5 and PD-L1
T2 construct: expressed in transfected cells; host or cells: Huh7 cells, transfected; captured on streptavidin agarose
Method: (a) Expression vectors for a control vector, TM4SF1, TM4SF5 WT, and R113Q, C118/145A, H127A, and N138A mutants of TM4SF5 were injected into the HEK293FT cell line, which was confirmed not to express TM4SF5, and allowed to express for 48 hours. (b) Huh7KO cell lines, in which TM4SF5 was knocked out in Huh7, were stably infected with a retrovirus encoding pBabe-EV or pBabe-TM4SF5-HA. […] (d) Strep-EV, Strep-PD-L1 WT, and 3NQ (N192/200/219Q) and 4NQ (N35/192/200/219Q) N-glycosylation mutants were injected into Huh7 cells to be expressed. (e) Strep-EV and Strep-TM4SF5 expression vectors were injected into Huh7KO cells and allowed to express for 48 hours. (a-e) After obtaining cell extracts, TM4SF5-strep, TM4SF5-HA, or PD-L1-strep was pulled down with streptavidin agarose resin or anti-HA antibody from extracts containing 0.2, 0.25, or 1.0 mg of protein for each experimental condition. […] Alternatively, they were treated with 1,2-^3H-Cholesterol (50 µM) alone or together with ST-3-001 (negative control compound), ST-5-001, or ST-5-002 (2.5 µM each) for 1 hour (c-e). For the experimental samples of each condition, radioactive isotope values were repeatedly measured using a TriCarb scintillation counter (PerkinElmer, Waltham, MA).

TM4SF5 [3] = target: T1, TM4SF5; assay: TM4SF5 expression-dependent animal models (summary statement); assay type: in vivo; parameters: expressed in transfected cells; captured on streptavidin agarose
Text: as §1

T2 sequence (Q9NZQ7 19-290): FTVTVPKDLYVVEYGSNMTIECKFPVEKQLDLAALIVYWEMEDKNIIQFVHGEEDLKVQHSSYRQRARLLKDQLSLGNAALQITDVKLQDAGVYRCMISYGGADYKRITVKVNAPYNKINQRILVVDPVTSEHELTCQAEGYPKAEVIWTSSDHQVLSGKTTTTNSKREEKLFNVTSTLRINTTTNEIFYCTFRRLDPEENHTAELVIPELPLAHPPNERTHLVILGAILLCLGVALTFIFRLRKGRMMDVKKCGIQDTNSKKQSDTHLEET

## COc1ccc(-c2cc(-c3ccc(N)cc3)no2)cc1 [ST-1-025, 4-(5-(4-methoxyphenyl)isoxazole-3-yl)aniline]
TM4SF5 [1]; 3 µM, SNU449 (FIG. 4)
  binding of TM4SF5 to EGFR, CD44, and GLUT4: slightly inhibited

## COc1ccc(-c2cc(-c3ccc(NC(C)=O)cc3)no2)cc1 [ST-2-001, N-(4-(5-(4-methoxyphenyl)isoxazole-3-yl)phenyl)acetamide]
TM4SF5 [1]; 5 µM, SNU449 (FIG. 6)
  binding between TM4SF5 and EGFR, integrin α5, CD133, CD44, mTOR, IL-6R α, GLUT1, and GLUT4: inhibited

## CC(=O)Nc1ccc(-c2cc(-c3ccc(O)cc3)no2)cc1 [ST-5-001, N-(4-(3-(4-hydroxyphenyl)isoxazole-5-yl)phenyl)acetamide]
TM4SF5 [2]
  concentrations at which effects were exhibited: ≤ 1 µM
PD-L1
  binding of cholesterol to PD-L1: inhibit
TM4SF5 [3]
  doses at which effects were exhibited: ≤ 2.5 mpk

## Cc1ccc(C(=O)Nc2ccc(-c3cc(-c4ccc(O)cc4)no3)cc2)cc1 [ST-5-002, N-(4-(3-(4-hydroxyphenyl)isoxazole-5-yl)phenyl)-4-methylbenzamide]
TM4SF5 [2]
  concentrations at which effects were exhibited: ≤ 1 µM
PD-L1
  binding of cholesterol to PD-L1: inhibit
TM4SF5 [3]
  doses at which effects were exhibited: ≤ 2.5 mpk
